Experimental data: US6451814B1, “Heterocyclic β-3 adrenergic receptor agonists” (Wyeth, priority 2000, dated 2002)
“And” between values parts separate entries of the source, which are not always exact repeats. Equal entries are not always repeated.

Target: T1, human β3-adrenergic receptor (Homo sapiens, UniProt P13945)
T1 construct: Full length β3 AR clones (402 amino acids) containing the last 6 amino acids of hβ3—AR are prepared; expressed in transfected cells; host or cells: CHO cells
Test: cAMP response (SPA kit) in CHO cells transfected with human β3 adrenergic receptor
Type: cell-based
Settings: for EC50: CHO cells expressing human β3-AR, 10^-9 M to 10^-5 M, 30 min at 37° C., cAMP by SPA, read-out: EC50(β3); for IA(β3): maximal response of compound compared to maximal response of isoproterenol at 10^-5 M, CHO cells, human β3-AR

T1 sequence (P13945 whole entry): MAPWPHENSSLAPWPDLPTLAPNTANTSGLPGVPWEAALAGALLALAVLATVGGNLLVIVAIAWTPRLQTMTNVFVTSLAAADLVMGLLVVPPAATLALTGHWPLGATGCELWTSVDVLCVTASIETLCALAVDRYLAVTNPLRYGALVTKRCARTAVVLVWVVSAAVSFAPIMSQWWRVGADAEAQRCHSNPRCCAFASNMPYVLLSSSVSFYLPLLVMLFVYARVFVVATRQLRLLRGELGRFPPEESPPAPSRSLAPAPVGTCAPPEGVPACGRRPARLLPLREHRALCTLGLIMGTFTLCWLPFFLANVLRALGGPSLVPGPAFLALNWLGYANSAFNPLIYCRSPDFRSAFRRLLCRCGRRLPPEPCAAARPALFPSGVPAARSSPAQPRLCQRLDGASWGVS

Row | Molecule | EC50 | IA(β3)
1 | O=C(CCNC(=O)N1CCC(Nc2ccc(CCNC[C@H](O)COc3ccc(O)cc3)cc2)CC1)Nc1ccc(F)cc1 [Example 81, 4-(4-{2-[(2S)-2-Hydroxy-3-(4-hydroxy-phenoxy)-propylamino]-ethyl}-phenylamino)-piperidine-1-carboxylic Acid [2-(4-fluoro-phenylcarbamoyl)-ethyl]-amide] | 21 nM | 1
2 | 4-(4-{2-[(2S)-2-Hydroxy-3-(4-hydroxy-phenoxy)-propylamino]-ethyl}-phenylamino)-piperidine-1-carboxylic Acid 4-fluoro-benzylamide [Example 53] |  | 1.17 and 1.5
3 | O=C(O)C1CCN(C(=O)N2CCC(Nc3ccc(CCNC[C@H](O)COc4ccc(O)cc4)cc3)CC2)CC1 [Example 62, 1-[4-(4-{2-[(2S)-2-Hydroxy-3-(4-hydroxy-phenoxy)-propylamino]-ethyl}-phenylamino)-piperidine-1-carbonyl]-piperidine-4-carboxylic acid] | 134 nM | 1.05
4 | COc1cccc(CNC(=O)N2CCC(Nc3ccc(CCNC[C@H](O)COc4ccc(O)cc4)cc3)CC2)c1 [Example 79, 4-(4-{2-[(2S)-2-Hydroxy-3-(4-hydroxy-phenoxy)-propylamino]-ethyl}-phenylamino)-piperidine-1-carboxylic acid 3-methoxy-benzylamide] | 41 nM | 0.8
5 | O=C(NCc1ccc(Cl)c(Cl)c1)N1CCC(Nc2ccc(CCNC[C@H](O)COc3ccc(O)cc3)cc2)CC1 [Example 21, 4-(4-{2-[(2S)-2-Hydroxy-3-(4-hydroxy-phenoxy)-propylamino]-ethyl}-phenylamino)-piperidine-1-carboxylic Acid 3,4-dichloro-benzylamide] | 30 nM | 1
6 | Oc1ccc(OC[C@@H](O)CNCCc2ccc(NC3CCN(c4nc(-c5ccccc5)cs4)CC3)cc2)cc1 [Example 117, 4-[(2S)-2-Hydroxy-3-(2-{4-[1l-(4-phenyl-thiazol-2-yl)-piperidin-4-ylamino]-phenyl}-ethylamino)-propoxy]-phenol] | 208 nM | 1.1
7 | Cc1sccc1C(=O)N1CCC(S(=O)(=O)c2ccc(CCNC[C@H](O)COc3ccc(O)cc3)cc2)CC1 [Example 107, [4-(4-{2-[(2S)-2-Hydroxy-3-(4-hydroxy-phenoxy)-propylamino]-ethyl}benenesulfonyl)-piperidin-1-yl]-(2-methyl-thiophen-3-yl)-methanone] | 40 nM | 0.92
8 | 4-[(2S)-2-Hydroxy-3-(2-{4-[-(1-methyl-1H-imidazole-4-sulfonyl)-piperidin-4-ylamino]-phenyl}-ethylamino)-propoxy]-phenol [Example 113] | 130 nM | 1
9 | O=C(CCNC(=O)N1CCC(Nc2ccc(CCNC[C@H](O)COc3ccc(O)cc3)cc2)CC1)N1CCOCC1 [Example 90, 4-(4-{2-[(2S)-2-Hydroxy-3-(4-hydroxy-phenoxy)-propylamino]-ethyl}-phenylamino)-piperidine-1-carboxylic Acid (3-morpholin-4-yl-3-oxo-propyl)-amide] | 77 nM | 0.73
10 | O=C(NCc1ccc(F)cc1F)N1CCC(Nc2ccc(CCNC[C@H](O)COc3ccc(O)cc3)cc2)CC1 [Example 80, 4-(4-{2-[(2S)-2-Hydroxy-3-(4-hydroxy-phenoxy)-propylamino]-ethyl}-phenylamino)-piperidine-1-carboxylic acid 2,4-difluoro-benzylamide] |  | 0.84
11 | Cc1ccsc1C(=O)N1CCC(Nc2ccc(CCNC[C@H](O)COc3ccc(O)cc3)cc2)CC1 [Example 100, [4-(4-{2-[(2S)-2-Hydroxy-3-(4-hydroxy-phenoxy)-propylamino]-ethyl}-phenylamino)-piperidin-1-yl]-(3-methyl-thiophen-2-yl)-methanone] | 16 nM | 0.98
